From paper PMC11589570, “Critical assessment of LC3/GABARAP ligands used for degrader development and ligandability of LC3/GABARAP binding pockets” (Nature Communications, 2024)
Where two headings read alike, the source gives them in different places.

Target: LC3B (Homo sapiens, UniProt Q9GZQ8)
Settings: for CSP: LC3B:ligand molar ratio 1:2; for 3D Mapping code: molar ratio 1:2

Compound: O=C1Nc2ccc(I)cc2C1=Cc1cc(Br)c(O)c(Br)c1 [compound 4]
- CSP (LC3B residue L53): 0.052 ppm
- 3D Mapping code (LC3B residue L53): Orange (strong (2xSD <CSP))
- CSP (LC3B residue L63): 0.011 ppm
- CSP (LC3B residue L71): 0.011 ppm
- CSP (LC3B residue L73): 0.011 ppm
- 3D Mapping code (LC3B residue L81): Light green (intermediate (SD < CSP <2xSD))
- 3D Mapping code (LC3B residue L82): Light green (intermediate (SD < CSP <2xSD))
- CSP (LC3B residue L109): 0.00462 ppm
- CSP (LC3B residue M01, estimated): 0.002 ppm
- CSP (LC3B residue M60): 0.024 ppm
- 3D Mapping code (LC3B residue M60): Light green (intermediate (SD < CSP <2xSD))
- CSP (LC3B residue M111): 0.018 ppm
- 3D Mapping code (LC3B residue M111): Light green (intermediate (SD < CSP <2xSD))
- CSP (LC3B residue N59): 0.072 ppm
- 3D Mapping code (LC3B residue N59): Orange (strong (2xSD <CSP))
- CSP (LC3B residue N74): 0.002 ppm
- CSP (LC3B residue N76): 0.00173 ppm
- 3D Mapping code (LC3B residue N84): Light green (intermediate (SD < CSP <2xSD))
- CSP (LC3B residue P02, estimated): 0.002 ppm
- CSP (LC3B residue P28, estimated): 0.016 ppm
- 3D Mapping code (LC3B residue P28, CSP estimated): Light green (intermediate (SD < CSP <2xSD))
- CSP (LC3B residue P32, estimated): 0.024 ppm
- 3D Mapping code (LC3B residue P32, CSP estimated): Light green (intermediate (SD < CSP <2xSD))
- CSP (LC3B residue P45, estimated): 0.005 ppm
- CSP (LC3B residue P55, estimated): 0.025 ppm
- 3D Mapping code (LC3B residue P55, CSP estimated): Light green (intermediate (SD < CSP <2xSD))
- CSP (LC3B residue Q09): 0.000424 ppm
- CSP (LC3B residue Q15): 0.00358 ppm
- CSP (LC3B residue Q26): 0.017 ppm
- 3D Mapping code (LC3B residue Q26): Light green (intermediate (SD < CSP <2xSD))
- CSP (LC3B residue Q43): 0.00371 ppm
- CSP (LC3B residue Q72): 0.009 ppm
- CSP (LC3B residue Q77): 0.005 ppm
- CSP (LC3B residue Q116): 0.00122 ppm
- CSP (LC3B residue R10): 0.005 ppm
- CSP (LC3B residue R11): 0.003 ppm
- CSP (LC3B residue R16): 0.013 ppm
- CSP (LC3B residue R21): 0.026 ppm
- 3D Mapping code (LC3B residue R21): Light green (intermediate (SD < CSP <2xSD))
- CSP (LC3B residue R24): 0.014 ppm
- CSP (LC3B residue R37): 0.016 ppm
- CSP (LC3B residue R68): 0.032 ppm
- 3D Mapping code (LC3B residue R68): Orange (strong (2xSD <CSP))
- CSP (LC3B residue R69): 0.020 ppm
- 3D Mapping code (LC3B residue R69): Light green (intermediate (SD < CSP <2xSD))
- CSP (LC3B residue R70): 0.032 ppm
- 3D Mapping code (LC3B residue R70): Orange (strong (2xSD <CSP))
- CSP (LC3B residue S03, estimated): 0.002 ppm
- CSP (LC3B residue S61): 0.017 ppm
- 3D Mapping code (LC3B residue S61): Light green (intermediate (SD < CSP <2xSD))
- 3D Mapping code (LC3B residue S87): Orange (strong (2xSD <CSP))
- 3D Mapping code (LC3B residue S90): Orange (strong (2xSD <CSP))
- 3D Mapping code (LC3B residue S92): Orange (strong (2xSD <CSP))
- CSP (LC3B residue S96): 0.039 ppm
- 3D Mapping code (LC3B residue S96): Orange (strong (2xSD <CSP))
- CSP (LC3B residue S101): 0.011 ppm
- CSP (LC3B residue S115): 0.008 ppm
- CSP (LC3B residue T06): 0.00323 ppm
- CSP (LC3B residue T12): 0.00666 ppm
- CSP (LC3B residue T29, estimated): 0.016 ppm
- 3D Mapping code (LC3B residue T29, CSP estimated): Light green (intermediate (SD < CSP <2xSD))
- CSP (LC3B residue T50): 0.022 ppm
- 3D Mapping code (LC3B residue T50): Light green (intermediate (SD < CSP <2xSD))
- 3D Mapping code (LC3B residue T93): Orange (strong (2xSD <CSP))
- CSP (LC3B residue T118): 0.005 ppm
- CSP (LC3B residue V17): 0.009 ppm
- CSP (LC3B residue V20): 0.010 ppm
- CSP (LC3B residue V33): 0.029 ppm
- 3D Mapping code (LC3B residue V33): Light green (intermediate (SD < CSP <2xSD))
- CSP (LC3B residue V46): 0.008 ppm
- CSP (LC3B residue V54): 0.049 ppm
- 3D Mapping code (LC3B residue V54): Orange (strong (2xSD <CSP))
- CSP (LC3B residue V58): 0.034 ppm
- 3D Mapping code (LC3B residue V58): Orange (strong (2xSD <CSP))
- 3D Mapping code (LC3B residue V83): Orange (strong (2xSD <CSP))
- 3D Mapping code (LC3B residue V89): Light green (intermediate (SD < CSP <2xSD))
- 3D Mapping code (LC3B residue V91, CSP estimated): Orange (strong (2xSD <CSP))
- CSP (LC3B residue V98): 0.013 ppm
- CSP (LC3B residue V112): 0.027 ppm
- 3D Mapping code (LC3B residue V112): Light green (intermediate (SD < CSP <2xSD))
- CSP (LC3B residue Y38): 0.00356 ppm
- CSP (LC3B residue Y99): 0.00251 ppm
- CSP (LC3B residue Y110): 0.037 ppm
- 3D Mapping code (LC3B residue Y110): Orange (strong (2xSD <CSP))
- CSP (LC3B residue Y113): 0.013 ppm
- CSP induced (N59 HN resonance, molar ratio 10O5:LC3B 1): 0.03127
- CSP induced (N59 HN resonance, molar ratio 10O5:LC3B 2): 0.08027
- CSP induced (N59 HN resonance, molar ratio 10O5:LC3B 8): 0.1884
- CSP induced (S90 HN resonance, molar ratio 10O5:LC3B 1): 0.01709
- CSP induced (S90 HN resonance, molar ratio 10O5:LC3B 2): 0.04125
- CSP induced (S90 HN resonance, molar ratio 10O5:LC3B 8): 0.08089
- CSP induced (Y110 HN resonance, molar ratio 10O5:LC3B 1): 0.0222
- CSP induced (Y110 HN resonance, molar ratio 10O5:LC3B 2): 0.03845
- CSP induced (Y110 HN resonance, molar ratio 10O5:LC3B 8): 0.0862
